Test results: patent US9040712B2, “Thiadiazole analogs thereof and methods for treating SMN-deficiency-related-conditions” (NOVARTIS AG, priority 2013, dated 2015)
pEC50: −log10 of the molar value. Where a name gives a salt, the structure may show the parent alone.

System: SMN protein
Experiment: cellular SMN ELISA (SMN protein elevation)
Assay type: cell-based
Settings: myoblast cell line derived from SMNdelta7 mouse model; 24 hours compound treatment; concentration range 100 pM-10 uM
Experimental: A cellular SMN ELISA was used to measure the effects of low molecular weight compounds on SMN protein elevation. Cells from a myoblast cell line derived from the SMNdelta7 mouse model (kind gift from Steve Burden, NYU) were seeded into a 384-well plate at a density of 3000 cells/well and treated with compounds for 24 hours. ELISA capture plates were prepared by coating 384-well plates (Immulon 4HBX) with 0.5 ug/mL of anti-SMN mAb (BD Science, Catalog number 610647) at 4° C. overnight. The plates were washed 5 times with 110 uL of PBS-Tween (0.05% Tween-20, PBST), blocked with 100 uL of 1% BSA in PBST for 2 hours and washed (5 times) with 100 uL of PBST. After 24 hours of compound treatment cells were lysed in a modified RIPA-buffer, on ice for 1 hour. 20 uL of lysate and 20 uL of 1% BSA were then added to the ELISA capture plates and incubated at 4° C. overnight. Plates were washed (5 times) with PBST and then incubated with 1:100 dilution of primary rabbit anti-SMN polyclonal antibody (Santa cruz, Catalog number SC-15320) at room temperature for 1 hour and subsequently washed (5 times) with 110 uL of PBST. This was followed by addition of 1:100 Goat anti-Rabbit IgG-HRP linked (Cell Signaling, Catalog number 7074) secondary antibody for 1 hour. Plates were then washed with PBST and incubated with 40 uL TMB substrate (Cell Signaling, Catalog number 7004L) at room temperature for 1-10 minutes with shaking. The reaction was stopped by addition of 40 uL of stop solution (Cell signaling, Catalog number 7002L) and absorption was measured at 450 nm. Data was reported as fold activation over DMSO control and EC50. ELISA assay condition: compound concentration range 100 pM-10 uM.

Row | SMILES | pEC50 | SMN Activity Fold (fold activation over DMSO control)
1 | CN(c1nnc(-c2cc(F)c(-c3ccn[nH]3)cc2F)s1)C1CC(C)(C)NC(C)(C)C1 [Example 51, 5-(2,5-difluoro-4-(1H-pyrazol-5-yl)phenyl)-N-methyl-N-(2,2,6,6-tetramethylpiperidin-4-yl)-1,3,4-thiadiazol-2-amine] | 7.07 | 2.86 fold
2 | COc1cc(-n2cccn2)ccc1-c1nnc(C2=CCNCC2)s1 [Example 29, 2-(2-Methoxy-4-(1H-pyrazol-1-yl)phenyl)-5-(1,2,3,6-tetrahydropyridin-4-yl)-1,3,4-thiadiazole] | 6.06 | 2.46 fold
3 | CN(c1nnc(-c2ccc(C#N)cc2F)s1)C1CC(C)(C)NC(C)(C)C1 [Example 34, 3-fluoro-4-(5-(methyl(2,2,6,6-tetramethylpiperidin-4-yl)amino)-1,3,4-thiadiazol-2-yl)benzonitrile] | < 5.00 | 2.32 fold
4 | CN(c1nnc(-c2cc3ccc(O)cc3cc2O)s1)C1CC(C)(C)NC(C)(C)C1 [Example 20, 3-(5-(Methyl(2,2,6,6-tetramethylpiperidin-4-yl)amino)-1,3,4-thiadiazol-2-yl)naphthalene-2,7-diol] | 7.32 | 2.63 fold
5 | COc1cc(-c2ccn[nH]2)ccc1-c1nnc(N(C)C2CC(C)(C)NC(C)(C)C2)s1 [Example 73, 5-(2-methoxy-4-(1H-pyrazol-5-yl)phenyl)-N-methyl-N-(2,2,6,6-tetramethylpiperidin-4-yl)-1,3,4-thiadiazol-2-amine] | 6.96 | 2.73 fold
6 | CN(c1nnc(-c2ccc(-c3ccnc(N)n3)cc2Cl)s1)C1CC(C)(C)NC(C)(C)C1 [Example 56, 5-(4-(2-aminopyrimidin-4-yl)-2-chlorophenyl)-N-methyl-N-(2,2,6,6-tetramethylpiperidin-4-yl)-1,3,4-thiadiazol-2-amine] | 7.39 | 2.47 fold
7 | CN(c1nnc(-c2ccc(-c3ccc(O)nc3)cc2O)s1)C1CC(C)(C)NC(C)(C)C1 [Example 19, 5-(3-Hydroxy-4-(5-(methyl(2,2,6,6-tetramethyl-piperidin-4-yl)amino)-1,3,4-thiadiazol-2-yl)phenyl)pyridin-2-ol] | 7.29 | 2.85 fold
8 | CN1C[C@@H]2CN(c3nnc(-c4ccc(-c5cn[nH]c5)cc4F)s3)C[C@@H]2C1 [Example 84, 2-(2-fluoro-4-(1H-pyrazol-4-yl)phenyl)-5-((3aR,6aS)-5-methylhexahydropyrrolo[3,4-c]pyrrol-2(1H)-yl)-1,3,4-thiadiazole] | 6.71 | 2.11 fold
9 | CN(c1nnc(-c2ccc(-n3cccn3)cc2Cl)s1)C1CC(C)(C)NC(C)(C)C1 [Example 65, 5-(2-chloro-4-(1H-pyrazol-1-yl)phenyl)-N-methyl-N-(2,2,6,6-tetramethylpiperidin-4-yl)-1,3,4-thiadiazol-2-amine] | 6.56 | 2.37 fold
10 | CN(c1nnc(-c2cc3c(cc2O)C(=O)CC3)s1)C1CC(C)(C)NC(C)(C)C1 [Example 92, 6-hydroxy-5-(5-(methyl(2,2,6,6-tetramethylpiperidin-4-yl)amino)-1,3,4-thiadiazol-2-yl)-2,3-dihydro-1H-inden-1-one] | 7.04 | 2.50 fold
11 | CN1CC[C@@H]2CN(c3nnc(-c4ccc(-c5cn[nH]c5)cc4Cl)s3)C[C@@H]21 [Example 81, 2-(2-chloro-4-(1H-pyrazol-4-yl)phenyl)-5-((3aR,6aR)-1-methylhexahydropyrrolo[3,4-b]pyrrol-5(1H)-yl)-1,3,4-thiadiazole] | 5.81 | 2.38 fold
12 | Oc1cc(-c2cn[nH]c2)cc(F)c1-c1nnc(N2C[C@H]3CNC[C@H]3C2)s1 [Example 96, 3-fluoro-2-(5-((3aR,6aS)-hexahydropyrrolo[3,4-c]pyrrol-2(1H)-yl)-1,3,4-thiadiazol-2-yl)-5-(1H-pyrazol-4-yl)phenol•Di-hydrochloride salt] | 8.05 | 2.85 fold
13 | CN(c1nnc(-c2ccc(-c3ccn(C)c(=O)c3)cc2Cl)s1)C1CC(C)(C)NC(C)(C)C1 [Example 39, 4-(3-chloro-4-(5-(methyl(2,2,6,6-tetramethyl-piperidin-4-yl)amino)-1,3,4-thiadiazol-2-yl)phenyl)-1-methylpyridin-2(1H)-one] | 7.30 | 2.31 fold
14 | CN(c1nnc(-c2ccc(-n3cccn3)cc2O)s1)C1CC(C)(C)NC(C)(C)C1 [Example 87, 2-(5-(methyl(2,2,6,6-tetramethylpiperidin-4-yl)amino)-1,3,4-thiadiazol-2-yl)-5-(1H-pyrazol-1-yl)phenol] | 6.77 | 2.76 fold
15 | CN(c1nnc(-c2ccc(-c3ccc(=O)[nH]c3)cc2Cl)s1)C1CC(C)(C)NC(C)(C)C1 [Example 88, 5-(3-chloro-4-(5-(methyl(2,2,6,6-tetramethylpiperidin-4-yl)amino)-1,3,4-thiadiazol-2-yl)phenyl)pyridin-2(1H)-one] | 6.80 | 2.22 fold
16 | CN(c1nnc(-c2ccc(-n3ccnc3)cc2F)s1)C1CC(C)(C)NC(C)(C)C1 [Example 72, 5-(2-fluoro-4-(1H-imidazol-1-yl)phenyl)-N-methyl-N-(2,2,6,6-tetramethylpiperidin-4-yl)-1,3,4-thiadiazol-2-amine] | 7.04 | 2.50 fold
17 | COc1cc(-n2cccn2)ccc1-c1nnc(CC2CC(C)(C)NC(C)(C)C2)s1 [Example 98, 2-(2-methoxy-4-(1H-pyrazol-1-yl)phenyl)-5-((2,2,6,6-tetramethylpiperidin-4-yl)methyl)-1,3,4-thiadiazole] | 6.09 | 2.19 fold
18 | CN1CCC2(CCCN(c3nnc(-c4ccc(-c5cn[nH]c5)cc4Cl)s3)C2)C1 (centres unmarked) [Example 83, 2-(2-chloro-4-(1H-pyrazol-4-yl)phenyl)-5-(2-methyl-2,7-diazaspiro[4.5]decan-7-yl)-1,3,4-thiadiazole] | 5.48 | 2.59 fold
19 | CN(c1nnc(-c2ccc(-c3cnn(C)c3)cc2C(F)(F)F)s1)C1CC(C)(C)NC(C)(C)C1 [Example 14] |  | inactive
20 | CN(c1nnc(-c2ccc(-n3nccn3)cc2Cl)s1)C1CC(C)(C)NC(C)(C)C1 [Example 67, 5-(2-chloro-4-(2H-1,2,3-triazol-2-yl)phenyl)-N-methyl-N-(2,2,6,6-tetramethylpiperidin-4-yl)-1,3,4-thiadiazol-2-amine] | 6.80 | 2.45 fold
21 | COc1cc(-c2cnn(C)c2)ccc1-c1nnc(N(C)C2CC(C)(C)NC(C)(C)C2)s1 [Example 6, 5-(2-Methoxy-4-(1-methyl-1H-pyrazol-4-yl)phenyl)-N-methyl-N-(2,2,6,6-tetramethylpiperidin-4-yl)-1,3,4-thiadiazol-2-amine] | 7.36 | 2.49 fold
22 | Cc1nc(C)c(-c2cc(F)c(-c3nnc(N(C)C4CC(C)(C)NC(C)(C)C4)s3)cc2F)s1 [Example 58, 5-(4-(2,4-dimethylthiazol-5-yl)-2,5-difluorophenyl)-N-methyl-N-(2,2,6,6-tetramethylpiperidin-4-yl)-1,3,4-thiadiazol-2-amine] | 6.41 | 2.41 fold
23 | COc1cc2ccccc2cc1-c1nnc(N(C)C2CC(C)(C)NC(C)(C)C2)s1 [Example 4, 5-(3-Methoxynaphthalen-2-yl)-N-methyl-N-(2,2,6,6-tetramethylpiperidin-4-yl)-1,3,4-thiadiazol-2-amine] | 6.05 | 2.48 fold
24 | CN(c1nnc(-c2ccc(-c3ccn[nH]3)cc2F)s1)C1CC(C)(C)NC(C)(C)C1 [Example 47, 5-(2-fluoro-4-(1H-pyrazol-5-yl)phenyl)-N-methyl-N-(2,2,6,6-tetramethylpiperidin-4-yl)-1,3,4-thiadiazol-2-amine] | 6.82 | 2.29 fold
